Results on 15 molecules are retold here after US12428397B2, “Factor XI activation inhibitors” (Merck Sharp & Dohme LLC, priority 2020, dated 2025).

T1 sequence (P03951 19-625): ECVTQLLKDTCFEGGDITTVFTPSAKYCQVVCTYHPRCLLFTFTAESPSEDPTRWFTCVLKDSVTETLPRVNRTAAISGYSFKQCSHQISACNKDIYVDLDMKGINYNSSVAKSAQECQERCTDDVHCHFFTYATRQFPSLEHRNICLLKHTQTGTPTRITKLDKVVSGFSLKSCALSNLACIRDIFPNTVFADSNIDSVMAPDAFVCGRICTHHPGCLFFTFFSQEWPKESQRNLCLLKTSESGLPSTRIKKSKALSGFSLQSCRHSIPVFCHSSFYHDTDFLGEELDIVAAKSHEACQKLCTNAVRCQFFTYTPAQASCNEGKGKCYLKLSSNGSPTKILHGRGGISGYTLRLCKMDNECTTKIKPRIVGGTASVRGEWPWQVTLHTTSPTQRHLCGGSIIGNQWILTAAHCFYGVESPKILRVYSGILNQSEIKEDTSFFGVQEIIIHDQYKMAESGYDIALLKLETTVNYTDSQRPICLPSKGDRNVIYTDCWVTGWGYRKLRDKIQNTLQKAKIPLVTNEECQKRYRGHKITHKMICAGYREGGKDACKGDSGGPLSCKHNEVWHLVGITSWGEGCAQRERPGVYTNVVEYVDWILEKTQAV

The assay has as its target T1, Human coagulation factor (F)XI (Homo sapiens, UniProt P03951).
T1 construct: purchased Haematologic Technologies Inc. (FXI); Enzyme Research Laboratories (FXIIa) HCXI-150 (FXI); HFXIIa (FXIIa)
The assay can be described thus: Inhibition of FXIIa mediated activation of FXI (activation of human Factor XI to XIa by human Factor α-XIIa). It is filed as biochemical. The conditions noted are these: human FXI pre-incubated with compound 30 min at 22° C., activation by human FXIIa 60 min, z-GPR-AFC substrate fluorescence read-out, 4 parameter logistic fit; read-out: Inhibition of FXIIa meditated activation of FXI. How it is done: Inhibition of FXIIa Mediated Activation of FXI
Activation of Human Factor XI to XIa by Human Factor α-XIIa
The assay was performed in 50 mM HEPES, 150 mM NaCl, 5 mM CaCl2, 0.1% PEG-8000, pH 7.4 buffer in black, flat-bottom, polystyrene microplates (Corning, Cat #3573). Serial dilutions (10-point, 3.333-fold) of the test compounds delivered as 10 mM DMSO stocks were prepared in the Labcyte Echo-qualified PP 384 well microplates (Labcyte, Cat #P-05525). Human coagulation factor (F)XI (Haematologic Technologies Inc., Cat #HCXI-150, concentration 46 nM, 19.5 uL) was pre-incubated with 0.5 uL of the test compounds for 30 min at 22° C. The activation was initiated by addition of 10 uL of human coagulation factor (F)XIIa (Enzyme Research Laboratories, Cat #HFXIIa, concentration 30 nM) and the reaction proceeded for 60 min at 22° C., after which it was quenched by addition of a selective inhibitor of FXIIa (Compound 54 in WO2018093695) concentration 600 uM in DMSO, 1 uL. 10 min after the quench, 29 uL of z-GPR-AFC substrate (Sigma, Cat #C0980-10MG, concentration 200 uM) was added into each well and the detection reaction proceeded for 60 min at 22° C. Fluorescence at 405/510 nm was measured in end-point mode using an Envision plate-reader (Perkin Elmer). IDBS Activity Base XE (ABase) analysis using 4 parameter logistic fit was performed to determine Minimum, Maximum, EC50, and Slope Factor for each compound.
For the molecule `N#CC1(c2ccccc2)CCN(C(=O)c2cc(C(=O)N3CCCCC3)c3cc(OCc4nc5ccccc5s4)ncc3c2)CC1` [Example 1, 1-(3-(benzo[d]thiazol-2-ylmethoxy)-5-(piperidine-1-carbonyl)isoquinoline-7-carbonyl)-4-phenylpiperidine-4-carbonitrile], the EC50 was found to be 37.9 nM. For `N#CC1(c2ccccc2)CCN(C(=O)c2cc(C(=O)N3CCCCC3)c3cc(OCc4ncc(C(F)(F)F)cc4Cl)ncc3c2)CC1` [Example 2, 1-(3-((3-chloro-5-(trifluoromethyl)pyridin-2-yl)methoxy)-5-(piperidine-1-carbonyl)isoquinoline-7-carbonyl)-4-phenylpiperidine-4-carbonitrile] the value was 26.8 nM. For `O=C(c1cc(C(=O)N2CCCCC2)c2cc(OCc3ncc(C(F)(F)F)cc3Cl)ncc2c1)N1CCC(n2ccnn2)CC1` [Example 3, (4-(1H-1,2,3-triazol-1-yl)piperidin-1-yl)(3-((3-chloro-5-(trifluoromethyl)pyridin-2-yl)methoxy)-5-(piperidine-1-carbonyl)isoquinolin-7-yl)methanone] the value was 32.7 nM.

For the molecule `N#CC1(c2ccccc2)CCN(C(=O)c2cc(C(=O)N3CCCCC3)c3cc(OCCCc4cccnc4)ncc3c2)CC1` [Example 4, 4-phenyl-1-(5-(piperidine-1-carbonyl)-3-(3-(pyridin-3-yl)propoxy)isoquinoline-7-carbonyl)piperidine-4-carbonitrile], the EC50 amounted to 8.5 nM. For `O=C(c1cc(C(=O)N2CCCCC2)c2cc(OCc3ncc(Cl)cc3Cl)ncc2c1)N1CCC(n2ccnn2)CC1` [Example 5, (4-(1H-1,2,3-triazol-1-yl)piperidin-1-yl)(3-((3,5-dichloropyridin-2-yl)methoxy)-5-(piperidine-1-carbonyl)isoquinolin-7-yl)methanone] the value was 41 nM. For `N#CC1(c2ccccc2)CCN(C(=O)c2cc(C(=O)N3CCCCC3)c3cc(OCc4ncc(Cl)cc4Cl)ncc3c2)CC1` [Example 6, 1-(3-((3,5-dichloropyridin-2-yl)methoxy)-5-(piperidine-1-carbonyl)isoquinoline-7-carbonyl)-4-phenylpiperidine-4-carbonitrile] the value was 19.4 nM; for `N#Cc1cccc(COc2cc3c(C(=O)N4CCCCC4)cc(C(=O)N4CCC(C#N)(c5ccccc5)CC4)cc3cn2)c1` [Example 7, 1-(3-((3-cyanobenzyl)oxy)-5-(piperidine-1-carbonyl)isoquinoline-7-carbonyl)-4-phenylpiperidine-4-carbonitrile], 23.6 nM; for `O=C(c1cc(C(=O)N2CCCCC2)c2cc(OCc3ncc(C(F)(F)F)cc3Cl)ncc2c1)N1CCC(n2cccn2)CC1` [Example 8, (4-(1H-pyrazol-1-yl)piperidin-1-yl)(3-((3-chloro-5-(trifluoromethyl)pyridin-2-yl)methoxy)-5-(piperidine-1-carbonyl)isoquinolin-7-yl)methanone], 13.4 nM. On to `N#Cc1ccc(COc2cc3c(C(=O)N4CCCCC4)cc(C(=O)N4CCC(n5cccn5)CC4)cc3cn2)cn1` [Example 9, 5-(((7-(4-(1H-pyrazol-1-yl)piperidine-l-carbonyl)-5-(piperidine-1-carbonyl)isoquinolin-3-yl)oxy)methyl)picolinonitrile], for which the EC50 came out at 45.7 nM. For `O=C(c1cc(C(=O)N2CCCCC2)c2cc(OCc3ccc(C(F)(F)F)nc3)ncc2c1)N1CCC(n2cccn2)CC1` [Example 10, (4-(1H-pyrazol-1-yl)piperidin-1-yl)(5-(piperidine-1-carbonyl)-3-((6-(trifluoromethyl)pyridin-3-yl)methoxy)isoquinolin-7-yl)methanone] the value was 33.2 nM; for `N#CC1(c2ccccn2)CCN(C(=O)c2cc(C(=O)N3CCCCC3)c3cc(OCc4ncc(Cl)cc4Cl)ncc3c2)CC1` [Example 11, 1-(3-((3,5-dichloropyridin-2-yl)methoxy)-5-(piperidine-1-carbonyl)isoquinoline-7-carbonyl)-4-(pyridin-2-yl)piperidine-4-carbonitrile], 4.3 nM; for `N#CC1(c2ccccn2)CCN(C(=O)c2cc(C(=O)N3CCCCC3)c3cc(OCc4ncc(C(F)(F)F)cc4Cl)ncc3c2)CC1` [Example 12, 1-(3-((3-chloro-5-(trifluoromethyl)pyridin-2-yl)methoxy)-5-(piperidine-1-carbonyl)isoquinoline-7-carbonyl)-4-(pyridin-2-yl)piperidine-4-carbonitrile], 24.3 nM.

For `O=C(c1cc(C(=O)N2CCCCC2)c2cc(OCc3ccc(Cl)cc3Cl)ncc2c1)N1CCC(n2cccn2)CC1` [Example 13, (4-(1H-pyrazol-1-yl)piperidin-1-yl)(3-((2,4-dichlorobenzyl)oxy)-5-(piperidine-1-carbonyl)isoquinolin-7-yl)methanone], the EC50 came to 49.5 nM.

For `O=C(c1cc(C(=O)N2CCCCC2)c2cc(OCc3ncc(Cl)cc3Cl)ncc2c1)N1CCC(n2cccn2)CC1` [Example 14, (4-(1H-pyrazol-1-yl)piperidin-1-yl)(3-((3,5-dichloropyridin-2-yl)methoxy)-5-(piperidine-1-carbonyl)isoquinolin-7-yl)methanone], the EC50 was found to be 8.8 nM.

In the case of `O=C(c1cc(C(=O)N2CCCCC2)c2cc(OCc3nc4ccccc4s3)ncc2c1)N1CCC(n2cccn2)CC1` [Example 15, (4-(1H-pyrazol-1-yl)piperidin-1-yl)(3-(benzo[d]thiazol-2-ylmethoxy)-5-(piperidine-1-carbonyl)isoquinolin-7-yl)methanone], the EC50 came out at 19.9 nM.
